{"source": "paper PMC9124820", "about": "“In vitro evaluation of fenfluramine and norfenfluramine as victims of drug interactions” (Pharmacology Research & Perspectives, 2022)", "key": {"[1]": {"experiment": "Metabolic stability and metabolite identity, dog intestinal S9 fractions", "assay_type": "in vitro ADME", "experimental": "(§1) LC‐MS/MS analyses to assess metabolic stability and identify the transporter substrate were performed using an API 4000 QTRAP mass spectrometer (SCIEX, Framingham, MA) with electrospray ionization in positive mode. Chromatography was performed using an Atlantis dC18 analytical column (100 × 2.1 mm, 5 µm; Waters Corporation, Milford, MA). Mobile phases were 0.2% v/v formic acid in water and 0.2% v/v formic acid in acetonitrile. For metabolic stability experiments, FFA and metabolites were eluted at a flow rate of 0.6 mL/min, with a linear gradient of 20%−80% acetonitrile from 0.30−2.0 min. For transporter substrate experiments, the gradient was slightly modified to achieve suitable chromatography. The mass transitions monitored were 232.0 > 159.0 for FFA and 348.0 > 330.0 for 1ʹ‐OH‐midazolam‐d4 internal standard. […]\n(§2) FFA (1 or 10 µM) was incubated with liver and intestinal S9 fractions (2 mg protein/mL) at 37 ± 1°C in 0.2‐mL incubation mixtures containing potassium phosphate buffer (50 mM, pH 7.4), magnesium chloride (MgCl2) (3 mM), and EDTA (1 mM, pH 7.4), in the presence or absence of a three‐component cofactor mixture (NADPH‐generating system, uridine diphosphate glucuronic acid (UDPGA) [8 mM], and 3’‐phosphoadenosine 5’‐phosphosulfate [0.5 mM]). […] Supernatant fractions were analyzed by LC‐MS/MS.\n(§3) To characterize substrate loss and metabolic stability, duplicate samples were analyzed by LC‐MS/MS to determine the change in substrate concentration over the incubation period. The rate constant of elimination (kel, min^−1) was determined from the time course of substrate loss based on single exponential decay (A(t)=A0(‐kelt)) . Half‐life in vitro was determined by the following equation: t1/2 = 0.693/kel. The in vitro intrinsic clearance (CLint) was calculated from the rate constant of elimination as follows: CLintμL/min/mgprotein=kelmin^‐1×incubationvolume(μL)/mgproteinperincubation.\n(§4) Percent loss of substrate was determined by normalizing the mean analyte peak‐area ratio at each time point to the average of four replicates at the 0‐min time point (100%)."}, "[2]": {"biological_target": "T1, rCYP2D6 (Homo sapiens, UniProt P10635)", "T1 construct": "purchased Cypex, Ltd; host or cells: Escherichia coli", "T1 sequence (P10635 whole entry)": "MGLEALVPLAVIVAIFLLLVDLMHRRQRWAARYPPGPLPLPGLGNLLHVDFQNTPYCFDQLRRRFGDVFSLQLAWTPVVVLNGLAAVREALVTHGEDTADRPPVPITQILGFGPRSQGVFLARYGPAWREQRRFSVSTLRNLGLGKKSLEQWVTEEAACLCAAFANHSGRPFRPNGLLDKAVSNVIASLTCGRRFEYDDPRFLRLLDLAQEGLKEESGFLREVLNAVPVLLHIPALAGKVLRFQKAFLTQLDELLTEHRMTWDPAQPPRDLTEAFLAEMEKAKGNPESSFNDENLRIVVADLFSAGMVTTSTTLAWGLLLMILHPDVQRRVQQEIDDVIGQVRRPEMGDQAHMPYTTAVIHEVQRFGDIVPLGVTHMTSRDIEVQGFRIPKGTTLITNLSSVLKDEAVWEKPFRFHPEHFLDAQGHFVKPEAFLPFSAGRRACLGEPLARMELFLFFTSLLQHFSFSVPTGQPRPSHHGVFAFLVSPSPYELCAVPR", "experiment": "Reaction phenotyping with rCYP2D6", "assay_type": "in vitro ADME", "conditions": "rCYP2D6, 60 min", "experimental": "For FFA and nFFA reaction phenotyping experiments, LC‐MS/MS experiments were performed using an API 4000 QTRAP or QTRAP 5500 mass spectrometer (SCIEX) with positive electrospray ionization. Chromatography was performed using an Atlantis dC18 analytical column (100 × 2.1 mm, 5 µm; Waters Corporation). Mobile phases were 0.2% v/v formic acid in water and 0.2% v/v formic acid in methanol. FFA and nFFA were eluted at a flow rate of 0.5 mL/min with a linear gradient of 40%−95% methanol from 0.20−2.1 min. The mass transitions monitored were 232.0>109.0 for FFA, 204.0>159.0 for nFFA, 348.0>330.0 for 1’‐hydroxymidazolam‐d4 internal standard (FFA reaction phenotyping), and 262.0>244.0 for hydroxybupropion‐d6 internal standard (nFFA reaction phenotyping). Analyst Instrument Control and Data Processing software (v. 1.6.1) was used for collecting and integrating data (SCIEX). Calibration curves ranging from 1.25 µM−0.01 µM were used to quantify nFFA. Relative quantitation was used to approximate the amount of FFA test material used.\nMethods used to evaluate the role of CYP450s in the metabolism of FFA have been described.[22], [23], [24] […] Supernatant fractions were analyzed by LC‐MS/MS."}, "[3]": {"conditions": "0.1 mg/kg FFA twice daily with stiripentol plus clobazam, with or without valproate, steady state; ref Prescribing information: https://www.fintepla.com/; cited from earlier work"}, "[4]": {"experiment": "Metabolic stability and metabolite identity, rat intestinal S9 fractions", "assay_type": "in vitro ADME", "conditions": "intestinal S9 fractions, pH 7.4; 1 µM FFA, rat intestine S9 fractions; outside assay detection limits", "experimental": "as §1, §2, §3, §4"}, "[5]": {"conditions": "intestinal S9 fractions, pH 7.4, 1 µM FFA, dog intestine S9 fractions, outside assay detection limits"}}}
{"smiles": "CCNC(C)Cc1cccc(C(F)(F)F)c1", "note": "(racemic) [FFA, (RS)‐ethyl (α‐methyl‐3‐trifluoromethylphenethyl)amine]", "values": [{"measurement": "percentage of FFA substrate loss at 10 µM relative to 1 µM", "setting": "[1]; dog intestinal S9 fractions, higher at 10 µM than at 1 µM", "result": "about 2 fold"}, {"measurement": "half-life at 1 µM", "setting": "[1]; [5]", "result": "> 2", "unit": "h"}, {"measurement": "microsomal CLint at 1 µM", "setting": "[1]; [5]", "result": "< 2.9", "unit": "µL/min/mg"}, {"measurement": "Disappearance of FFA", "setting": "[2]; 1 μM FFA", "result": 97, "unit": "%"}, {"measurement": "FFA loss", "setting": "[2]; 10 μM FFA", "result": 59, "unit": "%"}, {"measurement": "increase in FFA AUC0‐24", "setting": "[3]", "result": 166, "unit": "%"}, {"measurement": "half-life at 1 µM", "setting": "[4]", "result": "> 2", "unit": "h"}, {"measurement": "microsomal CLint at 1 µM", "setting": "[4]", "result": "< 2.9", "unit": "µL/min/mg"}]}
